Columns and labels:
[1] = system: TDP-43; test: Yeast growth rescue screen, cells expressing TDP-43; format: cell-based; conditions: yeast expressing TDP-43
Source text: Thus, rescue was not targeted to a common feature of misfolded protein toxicity, but rather reflected the ability of ABI to target specific pathologies related to α-syn (and to a lesser degree TDP-43).
Yeast strains expressing toxic proteins have been described previously (6, 9, 33, 34) (Table 1). All strains have either single or multiple inserts for galactose-inducible expression. In addition, all stains have either deletions of the Δpdr1::KanMX and Δpdr3::KanMX or Δpdr5::KanMX to reduce efflux of compounds and required compound dosing. Yeast were cultured in complete synthetic media (CSM) and an appropriate dropout (minus HIS or URA) to maintain plasmids if required. For galactose-induction experiments, overnight cultures were grown in CSM/2% glucose to saturation and diluted 1:20 into CSM/2% raffinose for ˜2 generations. Cultures were then diluted into CSM/2% galactose at an optimum OD600 for the experiment (see ‘Growth assays’).
Starting cultures for all dose-response assays were established as described above. All growth assays were carried out in 384 well-format. Source plates were assembled in 96 well plates using multichannel pipettes to dilute rows in 1.6-fold serial dilutions of CSMGal. […] Plates were then read with a Tecan Saphire plate reader at OD600. […]

[2] = system: α-syn; test: Yeast growth rescue from α-syn toxicity (dose-response); format: cell-based
Experimental: For galactose-induction experiments, overnight cultures were grown in CSM/2% glucose to saturation and diluted 1:20 into CSM/2% raffinose for ˜2 generations. Cultures were then diluted into CSM/2% galactose at an optimum OD600 for the experiment (see ‘Growth assays’).
Source plates were assembled in 96 well plates using multichannel pipettes to dilute rows in 1.6-fold serial dilutions of CSMGal. […] For α-syn, the final starting OD600 was 0.02. Drug concentration ranges varied depending on efficacy, growth inhibition, and solubility in media. A Tecan EvoFreedom liquid handling robot was then used to transfer culture from 96 to 384 well format with each well being represented four times. Final well volume was 35 μL. Plates were then incubated in humidified containers at 30° C. for either 24 or 40 hours. Plates were then read with a Tecan Saphire plate reader at OD600.
Raw OD600 values were transformed to “Relative Growth” in WT cells or “% Maximum Rescue” in α-syn experiments. In WT cells, the well background was subtracted and all values were then normalized to 100% for the untreated condition. In α-syn rescue experiments, the well background was subtracted and the maximum rescue in the particular experiment was normalized to 100%.

[3] = molecular target: Rsp5p (Saccharomyces cerevisiae, UniProt P39940); conditions: pers. comm.; cited from earlier work
[4] = system: dopaminergic (DA) neurons; test: C. elegans model of α-syn toxicity; format: in vivo; conditions: nematodes expressing α-syn and GFP in DA neurons
Experimental: Drug treatments of the C. elegans α-syn model were performed as previously described (6). Briefly, age-synchronized worms were obtained by treating gravid adults with 2% sodium hyopchlorite and 0.5M NaOH to isolate embryos (36). Variable concentrations of ABI1 or 0.2% DMSO was applied to embryos suspended in M9 buffer (22 mM KH2PO4, […], 85 mM NaCl, 1 mM MgSO4) (time 0), and incubated at 25 C for 24 hours to obtain a synchronized L1 population. Worms were washed three times in distilled water and one additional rinse in M9 buffer. The synchronized L1 worms were plated on regular nematode growth media (NGM) plates seeded with 100 uL of Eschericia coli (OP50). Worms were then transferred every other day to new plates to insure food abundance and eliminate progeny contamination. Worms were then analyzed seven days post-hatching. Analyses were carried out according to the criteria previously described (37). In each case, ˜30-40 animals were scored for the percent of WT animals. Experiments were completed in triplicate and averages calculated. A one-way ANOVA and Tukey's test was used to determine significance.

[5] = system: FUS/TLS; test: Yeast growth rescue, FUS/TLS proteinopathy model; format: cell-based
Experimental: (A) Structure of lead compound ABI. (B) Dose-response curves showing the relative rescue of ABI (log2, μM) in five yeast proteinopathy models. Rescue is relative to a positive control compound as determined by growth (OD600). (C) Localization of α-syn-GFP in strains with increasing toxicity: NoTox, InTox, HiTox and HiTox treated with 10 μM ABI. […] (E) (Left panel) Western blot of α-syn-GFP in NoTox, InTox, and HiTox strains with anti-α-syn antibody. (Right panel) Quantitation of western blot (α-syn relative to total protein quantitated from a Coomassie gel and normalized to 100% for HiTo). **: P<0.01; and ***: P<0.001, according to one-way ANOVA and a Tukey's test.
Yeast strains expressing toxic proteins have been described previously (6, 9, 33, 34) (Table 1). All strains have either single or multiple inserts for galactose-inducible expression. In addition, all stains have either deletions of the Δpdr1::KanMX and Δpdr3::KanMX or Δpdr5::KanMX to reduce efflux of compounds and required compound dosing. Yeast were cultured in complete synthetic media (CSM) and an appropriate dropout (minus HIS or URA) to maintain plasmids if required. […]
Starting cultures for all dose-response assays were established as described above. […] Plates were then read with a Tecan Saphire plate reader at OD600.

Rsp5p, sequence (P39940 whole entry): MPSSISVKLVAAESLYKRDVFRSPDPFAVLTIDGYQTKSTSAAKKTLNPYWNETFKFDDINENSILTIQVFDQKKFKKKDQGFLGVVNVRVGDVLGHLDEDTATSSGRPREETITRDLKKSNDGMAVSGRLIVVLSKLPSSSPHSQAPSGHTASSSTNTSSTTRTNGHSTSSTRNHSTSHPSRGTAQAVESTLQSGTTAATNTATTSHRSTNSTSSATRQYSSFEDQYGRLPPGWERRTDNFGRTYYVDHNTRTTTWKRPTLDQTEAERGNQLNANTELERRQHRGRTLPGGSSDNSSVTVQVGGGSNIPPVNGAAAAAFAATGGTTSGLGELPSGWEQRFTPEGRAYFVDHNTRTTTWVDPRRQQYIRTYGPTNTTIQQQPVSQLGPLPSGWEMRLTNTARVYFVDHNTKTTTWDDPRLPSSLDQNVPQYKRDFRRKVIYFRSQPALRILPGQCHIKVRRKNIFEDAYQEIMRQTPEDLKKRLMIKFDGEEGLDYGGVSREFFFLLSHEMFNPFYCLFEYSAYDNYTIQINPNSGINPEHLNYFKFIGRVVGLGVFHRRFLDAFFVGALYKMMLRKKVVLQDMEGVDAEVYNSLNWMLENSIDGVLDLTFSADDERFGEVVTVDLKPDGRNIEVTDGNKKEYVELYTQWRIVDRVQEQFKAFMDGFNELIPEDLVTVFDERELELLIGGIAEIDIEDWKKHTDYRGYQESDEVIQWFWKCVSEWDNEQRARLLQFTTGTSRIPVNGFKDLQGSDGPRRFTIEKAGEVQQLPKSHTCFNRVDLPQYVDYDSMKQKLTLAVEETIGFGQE

SMILES: Cc1cccc(-n2cnc3cc(C(=O)NCc4ccccc4Cl)ccc32)c1 [ABI, N-(2-chlorobenzyl)-1-(m-tolyl)-1H-benzo[d]imidazole-5-carboxamide]
- efficacy against TDP-43 (restoration of growth) [1]: modest efficacy
- growth-inhibitory concentration relative to EC50 in rescuing α-syn toxicity [2]: about four-fold
- potency and efficacy against α-syn (rescue of growth) ([2]; compared with TDP-43 model): much greater potency and efficacy
- ubiquitination of recombinant Rsp5p in vitro [3]: did not enhance ubiquitination
- melting point: 129 to 131 °C
- rescue of DA neurons from α-syn toxicity [4]: partial, yet highly significant, rescue
- efficacy against FUS/TLS [5]: not, however, effective
